Legend:
Type in all cases: biochemical
human cathepsin K [1] = target: T1, human cathepsin K (Homo sapiens, UniProt P43235); assay: Recombinant enzyme assay, human cathepsin K
T1 construct: made in house; host or cells: E. coli
T1 sequence (P43235 115-329): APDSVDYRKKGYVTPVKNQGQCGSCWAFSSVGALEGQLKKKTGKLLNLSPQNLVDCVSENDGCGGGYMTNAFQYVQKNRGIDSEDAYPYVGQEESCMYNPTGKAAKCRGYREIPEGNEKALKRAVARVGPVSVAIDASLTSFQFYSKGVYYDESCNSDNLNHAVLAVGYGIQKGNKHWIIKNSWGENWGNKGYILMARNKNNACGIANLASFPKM
Source text: (§1) Recombinant cathepsin K enzymes from all species were expressed in E. coli, purified and activated. Human cathepsin F and cathepsin S were expressed in Baculovirus, purified and activated. Purified human cathepsins B and H (Athens Research Technology), cathepsin L (Calbiochem), and cathepsin V (R & D Systems) were purchased.
(§2) H-D-Ala_Leu-Lys-AMC was used as the substrate in assays of cathepsin K from non-rodent species (human, dog, rabbit and guinea pig), and Z-Leu-Arg-AMC was used as the substrate in assays of cathepsin K from rodent species (mouse and rat). […]
(§3) Assays were carried out in white polystyrene 96-well plates in a final volume of 100 µL. […] Plates were read in a Fluoroskan Ascent (Thermo Labsystems, Helsinki, Finland) in kinetic mode, with excitation and emission filters of 390 and 460 nm, respectively. Rates were determined by linear regression of the fluorescence/time data in Excel. Rates were fitted by non-linear regression to either the competitive inhibition equation, with the substrate concentration fixed at the value in the assay and the KM fixed to the value previously determined, or the IC50 equation using GraphPad Prism (GraphPad, version 6, San Diego, USA) to obtain Ki or IC50 values, respectively.

human cathepsin F = target: T2, human cathepsin F (Homo sapiens, UniProt Q9UBX1); assay: Enzyme assay, human cathepsin F
T2 construct: made in house
Source text: as §1, §2, §3

human cathepsin B = target: T3, human cathepsin B (Homo sapiens, UniProt P07858); assay: Enzyme assay, human cathepsin B
T3 construct: purchased Athens Research Technology
Source text: as §1, §2, §3

human cathepsin H = target: T4, human cathepsin H (Homo sapiens, UniProt P09668); assay: Enzyme assay, human cathepsin H
T4 construct: purchased Athens Research Technology
Source text: as §1, §2, §3

human cathepsin K [2] = target: T1, human cathepsin K; assay: Kinetics of inhibition by progress curve analysis
Protocol: The kinetics of MIV-711 inhibition of human recombinant cathepsin K were measured by progress curve analysis. Briefly, 100 µmol/L substrate and 0.5 nmol/L cathepsin K were combined in 0.5 mL of buffer in a quartz cuvette and the fluorescence measured continuously in a spectrofluorometer (Hitachi F-4500, Hitachi Scientific Instruments, Woking, UK). Excitation wavelength was 385 nm and emission wavelength was 460 nm and slits were 5 and 10 nm for excitation and emission, respectively. PMT voltage was 700 V and the response time was 0.01 s. Once a linear rate was established, 5 µL MIV-711 (final assay concentration between 10 and 50 nmol/L) or 5 µL DMSO control was added and data collected until a new equilibrium rate was achieved. Data were imported into GraphPad Prism and then fitted to the Morrison equation [26] to obtain kobs. The kobs values were plotted against the inhibitor concentration and fitted to a straight line to obtain kon and koff.

T4 sequence (P09668 98-335): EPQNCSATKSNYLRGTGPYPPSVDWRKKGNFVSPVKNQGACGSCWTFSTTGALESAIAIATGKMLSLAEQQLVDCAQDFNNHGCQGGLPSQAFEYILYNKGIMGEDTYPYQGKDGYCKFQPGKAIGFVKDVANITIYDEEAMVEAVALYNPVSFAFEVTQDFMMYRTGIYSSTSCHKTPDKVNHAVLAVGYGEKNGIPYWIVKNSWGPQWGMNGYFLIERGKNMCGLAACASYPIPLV
T2 sequence (Q9UBX1 271-484): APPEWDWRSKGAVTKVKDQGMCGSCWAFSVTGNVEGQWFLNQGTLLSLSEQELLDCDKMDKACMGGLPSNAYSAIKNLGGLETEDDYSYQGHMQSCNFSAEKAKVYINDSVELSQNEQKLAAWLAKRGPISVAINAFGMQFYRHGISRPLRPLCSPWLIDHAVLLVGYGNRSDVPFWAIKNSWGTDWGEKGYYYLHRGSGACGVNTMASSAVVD

SMILES: C#C[C@@H]1CN(C(=O)[C@H](CC(C)C)NC(=O)c2ccc(-c3nc(N4CCN(C)CC4)sc3F)cc2)[C@@H]2C(=O)CO[C@H]12 [MIV-711]
- Selectivity versus the other human cathepsins tested (human cathepsin K [1]; cathepsin K vs cathepsins B, L, F, V, H, S): more than 1300 fold
- Ki (human cathepsin K [1]; human recombinant cathepsin K, geometric mean): 0.98 nM
- Ki (human cathepsin F): 2800 nM
- Ki (human cathepsin B): 1300 nM
- Ki (human cathepsin H): > 10000 nM
- residence time (human cathepsin K [2]; from koff): about 90 s
- Ki (human cathepsin K [2]; from kon and koff experiments, read-out: Ki from kinetic experiments): 1.7 nM
- koff rate (human cathepsin K [2]; human cathepsin K): 0.008 s⁻¹
- kon rate (human cathepsin K [2]; human cathepsin K): 4.6e+06 M⁻¹ s⁻¹
